Data from PubChem BioAssay (NCI).
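Method: 48-hour compound exposure of cells in 96-well plates, five concentrations, linear interpolation of endpoints. GI50 marks 50% less growth. TGI denotes the concentration required for complete inhibition of growth.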

Assays:
Experiment in all cases: NCI-60 cell line screen, 48 h
[1] = tested on: A498 renal
[2] = tested on: CAKI-1 renal
[3] = tested on: HL-60(TB) leukemia
[4] = tested on: LOX IMVI melanoma
[5] = tested on: SK-MEL-5 melanoma
[6] = tested on: SN12C renal
[7] = tested on: SW-620 colon
[8] = tested on: U251 CNS
[9] = tested on: HCT-116 colon
[10] = tested on: DU-145 prostate
[11] = tested on: HS 578T breast
[12] = tested on: BT-549 breast

| Structure (SMILES) | TGI [1] | TGI [2] | TGI [3] | TGI [4] | TGI [5] | TGI [6] | TGI [7] | TGI [8] | TGI [9] | TGI [10] | TGI [11] | TGI [12] | GI50 [1] | GI50 [12] | GI50 [2] | GI50 [10] | GI50 [3] | GI50 [5] | GI50 [6] | GI50 [7] |
| --- | --- | --- | --- | --- | --- | --- | --- | --- | --- | --- | --- | --- | --- | --- | --- | --- | --- | --- | --- | --- |
| Cc1nc2ccccc2nc1NS(=O)(=O)c1ccc(N)cc1 | > 100 µM | > 100 µM | > 100 µM | > 100 µM | > 100 µM | > 100 µM | > 100 µM | > 100 µM | – | – | – | – | – | – | – | – | – | – | – | – |
| O=S(=O)(CC1=NC2C=CC=CC2N=C1)NCc1ccccc1 (centres undefined) | > 100 µM | > 100 µM | > 100 µM | > 100 µM | > 100 µM | > 100 µM | > 100 µM | > 100 µM | > 100 µM | – | – | – | – | – | – | – | – | – | – | – |
| O=C1/C(=C/c2cccc([N+](=O)[O-])c2)COc2ccccc21 | > 84.4 µM | > 100 µM | 5.59 µM | 3.44 µM | 4.99 µM | – | 2.09 µM | 6.83 µM | 3.16 µM | – | – | – | – | – | – | – | – | – | – | – |
| Cc1ccc(S(=O)(=O)N/N=C2\C(=O)C3CC2C(Cl)C3Cl)cc1 (centres undefined) | > 100 µM | > 100 µM | > 100 µM | > 100 µM | > 100 µM | > 100 µM | > 100 µM | > 100 µM | > 100 µM | – | – | – | – | – | – | – | – | – | – | – |
| COc1ccc(NS(=O)CCc2ccccc2)cc1 (centres undefined) | – | > 100 µM | > 100 µM | > 100 µM | > 100 µM | > 100 µM | > 100 µM | > 100 µM | > 100 µM | > 100 µM | > 100 µM | – | – | – | – | – | – | – | – | – |
| O=C1/C(=C/c2cccc([N+](=O)[O-])c2)CCCc2ccccc21 | – | 30.1 µM | 21.6 µM | 16.5 µM | – | 33.1 µM | 17 µM | 20.9 µM | 17.2 µM | 28.2 µM | 25.9 µM | 28.1 µM | – | – | – | – | – | – | – | – |
| C/C(C=O)=N\Nc1cc(C)c2ccccc2n1 | 28.9 µM | 30.7 µM | – | 29.4 µM | 29.9 µM | 33 µM | 72.8 µM | 31.2 µM | 27.6 µM | 29.9 µM | 46.2 µM | 26.6 µM | – | – | – | – | – | – | – | – |
| COc1ccc2c(c1)c(Cc1c(C)n(C)c3ccc(OC)cc13)c(C)n2C | > 100 µM | > 100 µM | > 100 µM | > 100 µM | > 100 µM | > 100 µM | > 100 µM | > 100 µM | > 100 µM | – | – | – | – | – | – | – | – | – | – | – |
| CSc1nc(C)cc(Nc2ccc(O)c(CN3CCCCC3)c2)n1 | 53.1 µM | > 100 µM | – | > 100 µM | > 100 µM | > 100 µM | > 100 µM | – | > 100 µM | > 100 µM | > 100 µM | > 100 µM | – | – | – | – | – | – | – | – |
| CCc1cc(Cc2cc(CC)c(NC(=O)C3=CC(=O)CC(c4ccc(OC)cc4)O3)c(CC)c2Cl)c(Cl)c(CC)c1NC(=O)C1=CC(=O)CC(c2ccc(OC)cc2)O1 (centres undefined) | 39.9 µM | 65.8 µM | 68.1 µM | 32.4 µM | 36.4 µM | 39.5 µM | 20.9 µM | 26.1 µM | 31.6 µM | – | – | – | – | – | – | – | – | – | – | – |
| c1ccc(C2=NN(c3ccccc3)C3(S2)SC(c2ccccc2)(c2ccccc2)c2ccccc23)cc1 (centres undefined) | > 100 µM | > 100 µM | > 100 µM | > 100 µM | > 100 µM | > 100 µM | > 100 µM | > 100 µM | > 100 µM | – | – | – | – | – | – | – | – | – | – | – |
| CC1CN=C(NCc2ccccc2)S1 (centres undefined) | > 100 µM | – | > 100 µM | > 100 µM | – | > 100 µM | – | > 100 µM | > 100 µM | > 100 µM | > 100 µM | > 100 µM | – | – | – | – | – | – | – | – |
| Clc1cc(Cl)cc(N2N=C(c3cccc(Nc4ccncc4)c3)CC2c2ccccc2)c1 (centres undefined) | 4.42 µM | 3.36 µM | 5.2 µM | – | 3.23 µM | 3.12 µM | 3.73 µM | – | – | 6.51 µM | – | 28.4 µM | 1.81 µM | 6.23 µM | 1.57 µM | 2.54 µM | 1.9 µM | 1.78 µM | 1.66 µM | 1.85 µM |
| CCn1c(=O)c2c(=O)[nH][nH]c2c2ccccc21 | > 100 µM | – | > 100 µM | > 100 µM | > 100 µM | > 100 µM | > 100 µM | > 100 µM | > 100 µM | > 100 µM | > 100 µM | > 100 µM | – | – | – | – | – | – | – | – |
| CN(C)c1ccc(C2CC(=O)CC(c3ccc(N(C)C)cc3)C23C(=O)NC(=O)NC3=O)cc1 (centres undefined) | – | > 25 µM | > 25 µM | > 25 µM | > 25 µM | > 25 µM | > 25 µM | > 25 µM | > 25 µM | > 25 µM | – | > 25 µM | – | – | – | – | – | – | – | – |
| COc1ccc(/C=C/C(=O)NCC(NC(=O)/C=C/c2ccc(OC)c(OC)c2)C(=O)O)cc1OC (centres undefined) | > 100 µM | > 100 µM | – | > 100 µM | > 100 µM | > 100 µM | > 100 µM | > 100 µM | > 100 µM | > 100 µM | > 100 µM | > 100 µM | – | – | – | – | – | – | – | – |
| CSC1=N/C(=C\c2cccs2)C(=O)N1CN1CCCCC1 | > 100 µM | – | – | 75.6 µM | > 100 µM | > 100 µM | > 100 µM | > 100 µM | > 100 µM | > 100 µM | > 100 µM | – | – | – | – | – | – | – | – | – |
| O=c1c2cc(I)ccc2nc(-c2cccs2)n1Nc1ccccc1 | – | 65.9 µM | > 100 µM | > 100 µM | > 100 µM | > 100 µM | > 100 µM | > 100 µM | > 100 µM | – | – | > 100 µM | – | – | – | – | – | – | – | – |
| COc1cc(C2c3cccc4cccc(c34)C3CCC(=O)N32)cc(O)c1O (centres undefined) | > 50 µM | – | > 50 µM | – | – | > 50 µM | > 50 µM | > 50 µM | > 50 µM | > 50 µM | – | > 50 µM | – | – | – | – | – | – | – | – |
| CCOc1ccc(NCC(=O)N2CC(=O)Nc3ccccc32)cc1 | – | > 100 µM | > 100 µM | > 100 µM | > 100 µM | > 100 µM | > 100 µM | > 100 µM | > 100 µM | – | – | – | – | – | – | – | – | – | – | – |
| COc1ccc2oc(=N)c(C(N)=S)cc2c1 | – | > 100 µM | > 100 µM | 33 µM | 57.8 µM | 82.8 µM | > 100 µM | > 100 µM | 45.7 µM | > 100 µM | 58.6 µM | 43.5 µM | – | – | – | – | – | – | – | – |
